Data published in patent US8426452B2, “Process for the treatment and prevention of diseases caused by fungi” (priority 2008, dated 2013).
Where two headings read alike, the source gives them in different places.

How the values were obtained:
[1] = test system: S. cerevisiae strain AH109; assay: Growth inhibition of S. cerevisiae strain AH109 in YPD medium (turbidity, A600)
Description: (§1) AH109 cells or ATCC 96901 cells were inoculated into 200.0 ml of YPD to obtain an initial OD600 reading of 0.005 on a spectrophotometer. […] The yeast suspensions were placed on a shaking incubator set at 200 rpm and 30° C. for 18-24 hr (S. cerevisiae) or 10-12 hr (C. albicans), and then the extent of fungal growth was assessed by measuring the sample absorbance at 600 nm (A600 nm) on a spectrophotometer. The effect of each concentration of antifungal agent was tested in triplicate.

[2] = test system: C. albicans strain ATCC 96901; assay: Growth inhibition of fluconazole-resistant C. albicans strain ATCC 96901 in YPD medium (turbidity, A600)
Description: as §1

C. albicans strain S2 = assay: Broth microdilution susceptibility testing (MIC), C. albicans strain S2; conditions: fluconazole-resistant C. albicans strain S2, RPMI medium pH 7.0, 48 hr, 30° C.; MIC = lowest concentration with 100% growth inhibition
Description: (§2) Broth Microdilution Susceptibility Testing of C. albicans:
(§3) Note that all susceptibility assays were performed in triplicate wells using sterile flat-bottom 24-well microtiter plates.

[3] = test system: C. albicans strain ATCC 96901; assay: Broth microdilution susceptibility testing (MIC), C. albicans strain ATCC 96901; conditions: fluconazole-resistant C. albicans strain ATCC 96901, RPMI medium pH 7.0, 48 hr, 30° C.; MIC = lowest concentration with 100% growth inhibition
Description: as §2, §3

[4] = Saccharomyces cerevisiae, AH109, AH109, read-out: IC50, concentration of drug required to inhibit the growth of yeast cells by 50%
[5] = Candida albicans, ATCC96901, read-out: IC50, concentration of drug required to inhibit the growth of yeast cells by 50%

Description for A-431 human skin cells: Cells were then incubated for 48 hr at 37° C. After incubation, the MTT viability assay was performed. This assay measures the conversion of 3-[4,5-dimethylthiazol-2-yl]-2,5-diphenyl tetrazolium bromide (MTT) into a colored product in living cells.
The MTT assay was used to determine cell viability and the LC50 value for each compound was evaluated.

Compound	IC50 [1, 4] [nM]	IC50 [2, 5] [nM]	IC50 ([1]; read-out: IC50, concentration of drug required to inhibit the growth of yeast cells by 50%, S. cerevisiae AH109, YPD medium, 18-24 hr, 30° C.) [nM]	IC50 ([2]; read-out: IC50, concentration of drug required to inhibit the growth of yeast cells by 50%, fluconazole-resistant C. albicans ATCC 96901, YPD medium, 10-12 hr, 30° C.) [nM]	MIC compared with fluconazole (C. albicans strain S2)	MIC compared with fluconazole [3]	Toxicity to A-431 human skin cells (MTT viability, LC50 evaluated) (A-431 human skin cells)
OC(Cn1cncn1)(Cn1cncn1)c1ccc(F)cc1F [fluconazole]	53000	460000					
C[C@@H]1[C@H](O)[C@@H](C)/C=C/C=C/C=C/C=C/C=C/C=C/C=C/[C@H](O[C@@H]2O[C@H](C)[C@@H](O)[C@H](N)[C@@H]2O)C[C@@H]2O[C@](O)(C[C@@H](O)C[C@@H](O)[C@H](O)CC[C@@H](O)C[C@@H](O)CC(=O)O[C@H]1C)C[C@H](O)[C@H]2C(=O)O [amphotericin B]			30	230			
CCC(C)n1ncn(-c2ccc(N3CCN(c4ccc(OCC5COC(Cn6cncn6)(c6ccc(Cl)cc6Cl)O5)cc4)CC3)cc2)c1=O (stereo not drawn) [itraconazole]	1130	480					
O=c1c2ccccc2[se]n1-c1ccccc1 [ebselen, 2-phenyl-1,2-benzisoselenazol-3(2H)-one]	4600	5830			lower MIC values, than fluconazole	lower MIC values, than fluconazole	neither compound was toxic
CC(=O)N1CCN(c2ccc(OCC3COC(Cn4ccnc4)(c4ccc(Cl)cc4Cl)O3)cc2)CC1 (stereo not drawn) [ketoconazole]	540	210					
O=C1c2ccccc2[Se](=O)N1c1ccccc1 (stereo not drawn) [ebselen se-oxide, 2-phenyl-1,2-benzisoselenazol-3(2H)-one 1-oxide]	2100	4500			lower MIC values, than fluconazole	lower MIC values, than fluconazole	neither compound was toxic
